Results from BindingDB's records for PubMed 1652050 (Seattle Veterans Affairs Medical Center, 1991).
Where “and” joins values, the source holds several entries; their conditions need not be identical. Equal values may be shown once.

Molecular target: 5-hydroxytryptamine receptor 1D (Homo sapiens, UniProt P28221)
Sequence (P28221 whole entry): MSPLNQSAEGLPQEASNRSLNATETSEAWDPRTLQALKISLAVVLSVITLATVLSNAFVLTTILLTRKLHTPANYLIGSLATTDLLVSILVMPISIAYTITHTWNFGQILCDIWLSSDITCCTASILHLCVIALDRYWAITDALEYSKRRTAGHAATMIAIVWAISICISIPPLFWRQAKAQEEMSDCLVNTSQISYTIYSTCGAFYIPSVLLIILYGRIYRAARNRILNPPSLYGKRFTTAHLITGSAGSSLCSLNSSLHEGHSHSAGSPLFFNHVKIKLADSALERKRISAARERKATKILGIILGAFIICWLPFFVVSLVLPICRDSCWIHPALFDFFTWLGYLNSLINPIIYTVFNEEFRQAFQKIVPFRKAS

CN1C2CCC1CC(OC(=O)c1c[nH]c3ccccc13)C2 (centres undefined)
Ki: > 10000 nM

CN1CC(C(=O)N[C@]2(C)O[C@@]3(O)C4CCCN4C(=O)[C@H](Cc4ccccc4)N3C2=O)CC2c3cccc4[nH]cc(c34)CC21 (stereo partly drawn) [7-Methyl-4,6,6a,7,8,9,10,10a-octahydro-indolo[4,3-fg]quinoline-9-carboxylic acid ((2R,5S,10bS)-5-benzyl-10b-hydroxy-2-methyl-3,6-dioxo-octahydro-oxazolo[3,2-a]pyrrolo[2,1-c]pyrazin-2-yl)-amide]
Ki: 0.13 nM

O=C(CCCN1CCC2(CC1)C(=O)NCN2c1ccccc1)c1ccc(F)cc1 [8-[4-(4-fluorophenyl)-4-oxidanylidene-butyl]-1-phenyl-1,3,8-triazaspiro[4.5]decan-4-one]
Ki: 3100 nM

CN1C[C@@H](NS(=O)(=O)N(C)C)C[C@@H]2c3cccc4c3c(cn4C)C[C@H]21 [MESULERGINE]
Ki: 1700 nM

CN1C[C@H](CNC(=O)OCc2ccccc2)C[C@@H]2c3cccc4c3c(cn4C)C[C@H]21 [METERGOLINE]
Ki: 0.61 nM

CC(C)(C)NCC(O)COc1cccc2[nH]c(C#N)cc12 (centres undefined) [NSC_155346]
Ki: 85 nM

Clc1cccc(N2CCNCC2)c1 [mCPP]
Ki: 210 nM

CSc1ccc2c(c1)C(N1CCN(C)CC1)Cc1ccccc1S2 (centres undefined) [methanesulfonic acid;1-methyl-4-(3-methylsulfanyl-5,6-dihydrobenzo[b][1]benzothiepin-5-yl)piperazine]
Ki: 5.8 nM

COC(=O)[C@@H]1[C@H]2C[C@H]3c4[nH]c5ccccc5c4CCN3C[C@@H]2CC[C@@H]1O [yohimbic acid methyl ester]
Ki: 59 nM and 51 nM
